Values quoted from earlier work in patent US20190381039A1, “USE OF sGC STIMULATORS FOR THE TREATMENT OF ESOPHAGEAL MOTILITY DISORDERS” (Cyclerion Therapeutics, Inc., priority 2016, published 2019).

How the values were obtained:
[1] = tested on: patients with esophageal motility abnormalities
[2] = tested on: patients with idiopathic achalasia
[3] = report from 2000, patients with esophageal dysmotility

In the case of `CN(C)CCCN1c2ccccc2CCc2ccccc21` [imipramine], the “relief of chest pain” value [1] is listed as “effective in relieving chest pain”.
In the case of `CCCc1nn(C)c2c(=O)[nH]c(-c3cc(S(=O)(=O)N4CCN(C)CC4)ccc3OCC)nc12` [sildenafil], the “utility in achalasia patients (off label)” value ([2]; Bortolotti et al., Gastroenterology 118(2): 253-7, 2000) is listed as “some limited utility”, the “side effects reported by patients” value ([2]; report from 2000) is listed as “dizziness and headaches” and the LES pressure [2, 3] is listed as “able to reduce LES pressure”. For the same compound, the clinical symptoms [2, 3] was “clinical symptoms were not improved”.
In the case of `O=c1n(CCCN2CCN(c3cccc(Cl)c3)CC2)nc2ccccn12` [trazodone], the “relief of chest pain” value [1] is given as “effective in relieving chest pain”.
